Consider two compounds from article PMC4061029, “A Stable and Reproducible Human Blood-Brain Barrier Model Derived from Hematopoietic Stem Cells” (PLoS ONE, 2014).

The structures appear in SMILES notation.

Data set [1] deals with iPSC-derived ECs with astrocytes. The arrangement: method as in PMID 24561821. Particulars: cited from earlier work.
Data set [2] has as its system CD34+-derived ECs co-cultured with pericytes. The data set can be described thus: Cell viability of ECs under Wnt antagonist. Particulars: co-culture with pericytes, 4 days. The data set is classed as cell-based, human.
Data set [3] has the same test system. As to the kind of experiment: Abrogation of Wnt signaling: paracellular permeability of ECs co-cultured with pericytes. The data set is classed as cell-based, human. Particulars: co-culture with pericytes, 4 days, 0.1 or 1 µM, luminal side. As for the experimental part:
Prior to the experiments, HEPES-buffered Ringer’s solution (in some cases EBM-2 medium) was added to empty wells of a 12-well plate (Costar). Filter inserts, containing confluent monolayers of CD34^+-ECs, were subsequently placed in the 12-well plate, filled with compound solution containing the fluorescent integrity marker Lucifer Yellow (20 µM; Life Technologies), and then placed on an orbital shaker. After 1 h, filter inserts were withdrawn from the receiver compartment. Aliquots from the donor solution were taken at the beginning and at the end of the experiments and the fluorescence was quantified. At least three inserts with cells and three without cells were tested in each permeability measurement. Fluorescence detection was carried out on a Synergy H1 multiplates reader (Biotek) using the following excitation/emission wavelength (nm) settings: 432/538; 490/516; 542/570 for Lucifer yellow, Fluorescein Na and Cy3-Human Serum Albumin and Human IgG respectively.
For Wnt signaling experiments, mono- and co-culture systems were used. […]
Figure 6 Evaluation of Wnt signaling in the induction of BBB properties in ECs. […] After 4 days of coculture, the paracellular permeability and cell organization were evaluated. (D) Fluorescence microscopy images showing the expression of ZO-1 in untreated ECs or ECs treated with XAV 939 (1 µM) for 4 days. […]

In the case of `CC1=C(/C=C/C(C)=C/C=C/C(C)=C/C(=O)O)C(C)(C)CCC1` [retinoic acid], in data set [1], the “TEER of the BBB model” value is “up to 5000 Ω×cm^2”.

Take `Oc1nc(-c2ccc(C(F)(F)F)cc2)nc2c1CSCC2` [XAV-939]: the cell viability result in data set [2] is given as “did not affect”. For the same compound, in data set [3], the “paracellular permeability of the EC monolayer to lucifer yellow” value is on record as “increased”.
